# Reference: patent publication US11129825B2, “Polysubunit opioid prodrugs resistant to overdose and abuse” (Elysium Therapeutics, Inc., priority 2015, dated 2021)
# Legend:
# [1] = system: opioid receptors; conditions: after oral doses; cited from earlier work
# [2] = system: trypsin; assay: Inhibition of trypsin-catalyzed hydrolysis of Nα-Benzoyl-L-arginine 4-nitroanilide hydrochloride in vitro; type: biochemical; conditions: pH 7.4, 37° C.; for Percent Nα-Benzoyl-L-arginine 4-nitroanilide hydrochloride remaining: trypsin 2,000 BAEE
# Method: This example describes in vitro experiments with a compound of the disclosure to provide a mechanism of overdose protection.
# The effect of increasing concentrations of compounds 2 and 3 on the rate and extent of the trypsin-catalyzed hydrolysis of a commercially available trypsin substrate Nα-Benzoyl-L-arginine 4-nitroanilide hydrochloride was evaluated in the presence of trypsin (2,000 BAEE activity) in a pH 7.4 phosphate buffer at 37° C. in vitro. Both buffer alone (i.e. no trypsin) and trypsin (i.e. no compound 2 or 3) controls were run contemporaneously.
# [3] = Pharmacokinetics of delivered hydrocodone after increasing oral doses in dogs; type: in vivo
# Method: The effect of increasing oral doses of compounds 2 and 3 on the pharmacokinetics of delivered hydrocodone (i.e. measured plasma hydrocodone concentrations vs. time) was evaluated in dogs. Specific pharmacokinetics parameters of the delivered opioid were calculated (e.g. Cmax, Tmax, AUC) and are presented below in the Table below.
# [4] = oral administration; cited from earlier work
# [5] = hydrochloride salt; cited from earlier work
structure (smiles),measurement,setting,value
C[C@H]1[C@H]2Cc3ccc(O)cc3[C@]1(C)CCN2CC1CC1 [cyclazocine],Duration of action,[1],~24 h
COc1ccc2c3c1O[C@H]1C(OC(=O)N4CCC(C(=O)NCCCC[C@H](NC(=O)OCc5ccccc5)C(=O)NCCOc5ccc(C(=O)Oc6ccc7cc(C(=N)N)ccc7c6)cc5)CC4CNC(=O)[C@@H](CCCNC(=N)N)NC(=O)CNC(C)=O)=CC[C@H]4[C@@H](C2)N(C)CC[C@]314 (stereo partly shown) [Compound 2],Trypsin inhibition with increasing compound concentration,"[2]; 1 uM to 1 mM, result in words",progressively inhibit trypsin in a concentration dependent manner
same,Percent Nα-Benzoyl-L-arginine 4-nitroanilide hydrochloride remaining,"[2]; compound 1 uM, 2 min",100%
same,Percent Nα-Benzoyl-L-arginine 4-nitroanilide hydrochloride remaining,"[2]; compound 1 uM, 13 min",39%
same,Percent Nα-Benzoyl-L-arginine 4-nitroanilide hydrochloride remaining,"[2]; compound 1 uM, 24 min",0%
same,Percent Nα-Benzoyl-L-arginine 4-nitroanilide hydrochloride remaining,"[2]; compound 1 uM, 80 min",0%
same,Percent Nα-Benzoyl-L-arginine 4-nitroanilide hydrochloride remaining,"[2]; compound 1 uM, 102 min",0%
same,Percent Nα-Benzoyl-L-arginine 4-nitroanilide hydrochloride remaining,"[2]; compound 1 uM, 119 min",0%
same,Percent Nα-Benzoyl-L-arginine 4-nitroanilide hydrochloride remaining,"[2]; compound 1 uM, 234 min",0%
same,Percent Nα-Benzoyl-L-arginine 4-nitroanilide hydrochloride remaining,"[2]; compound 10 uM, 2 min",100%
same,Percent Nα-Benzoyl-L-arginine 4-nitroanilide hydrochloride remaining,"[2]; compound 10 uM, 13 min",98%
same,Percent Nα-Benzoyl-L-arginine 4-nitroanilide hydrochloride remaining,"[2]; compound 10 uM, 24 min",96%
same,Percent Nα-Benzoyl-L-arginine 4-nitroanilide hydrochloride remaining,"[2]; compound 10 uM, 80 min",94%
same,Percent Nα-Benzoyl-L-arginine 4-nitroanilide hydrochloride remaining,"[2]; compound 10 uM, 102 min",93%
same,Percent Nα-Benzoyl-L-arginine 4-nitroanilide hydrochloride remaining,"[2]; compound 10 uM, 119 min",94%
same,Percent Nα-Benzoyl-L-arginine 4-nitroanilide hydrochloride remaining,"[2]; compound 10 uM, 234 min",87%
same,Percent Nα-Benzoyl-L-arginine 4-nitroanilide hydrochloride remaining,"[2]; compound 100 uM, 2 min",100%
same,Percent Nα-Benzoyl-L-arginine 4-nitroanilide hydrochloride remaining,"[2]; compound 100 uM, 13 min",98%
same,Percent Nα-Benzoyl-L-arginine 4-nitroanilide hydrochloride remaining,"[2]; compound 100 uM, 24 min",100%
same,Percent Nα-Benzoyl-L-arginine 4-nitroanilide hydrochloride remaining,"[2]; compound 100 uM, 80 min",99%
same,Percent Nα-Benzoyl-L-arginine 4-nitroanilide hydrochloride remaining,"[2]; compound 100 uM, 102 min",99%
same,Percent Nα-Benzoyl-L-arginine 4-nitroanilide hydrochloride remaining,"[2]; compound 100 uM, 119 min",99%
same,Percent Nα-Benzoyl-L-arginine 4-nitroanilide hydrochloride remaining,"[2]; compound 100 uM, 234 min",99%
same,Percent Nα-Benzoyl-L-arginine 4-nitroanilide hydrochloride remaining,"[2]; compound 1 mM, 2 min",100%
same,Percent Nα-Benzoyl-L-arginine 4-nitroanilide hydrochloride remaining,"[2]; compound 1 mM, 13 min",100%
same,Percent Nα-Benzoyl-L-arginine 4-nitroanilide hydrochloride remaining,"[2]; compound 1 mM, 24 min",99%
same,Percent Nα-Benzoyl-L-arginine 4-nitroanilide hydrochloride remaining,"[2]; compound 1 mM, 80 min",100%
same,Percent Nα-Benzoyl-L-arginine 4-nitroanilide hydrochloride remaining,"[2]; compound 1 mM, 102 min",100%
same,Percent Nα-Benzoyl-L-arginine 4-nitroanilide hydrochloride remaining,"[2]; compound 1 mM, 119 min",100%
same,Percent Nα-Benzoyl-L-arginine 4-nitroanilide hydrochloride remaining,"[2]; compound 1 mM, 234 min",100%
same,Release of hydrocodone in vivo with increasing oral doses,"[3]; increasing oral doses, dogs, result in words",progressively attenuate the release of hydrocodone in vivo
same,AUC0-8 h of hydrocodone in dog plasma,[3]; oral dose 1.66 umol/kg,7.79 ng·h/mL
same,Maximum concentration (Cmax) of hydrocodone in dog plasma,[3]; oral dose 1.66 umol/kg,2.87 ng/mL HC
same,Time of maximum concentration (Tmax) of hydrocodone in dog plasma,[3]; oral dose 1.66 umol/kg,0.96 h
same,AUC0-8 h of hydrocodone in dog plasma,[3]; oral dose 5 umol/kg,27 ng·h/mL
same,Maximum concentration (Cmax) of hydrocodone in dog plasma,[3]; oral dose 5 umol/kg,6.49 ng/mL HC
same,Time of maximum concentration (Tmax) of hydrocodone in dog plasma,[3]; oral dose 5 umol/kg,1.38 h
same,AUC0-8 h of hydrocodone in dog plasma,[3]; oral dose 10 umol/kg,37.68 ng·h/mL
same,Maximum concentration (Cmax) of hydrocodone in dog plasma,[3]; oral dose 10 umol/kg,8.37 ng/mL HC
same,Time of maximum concentration (Tmax) of hydrocodone in dog plasma,[3]; oral dose 10 umol/kg,2.08 h
same,AUC0-8 h of hydrocodone in dog plasma,[3]; oral dose 35 umol/kg,64.38 ng·h/mL
same,Maximum concentration (Cmax) of hydrocodone in dog plasma,[3]; oral dose 35 umol/kg,11.87 ng/mL HC
same,Time of maximum concentration (Tmax) of hydrocodone in dog plasma,[3]; oral dose 35 umol/kg,2.13 h
O=C1CC[C@@]2(O)[C@H]3Cc4ccc(O)c5c4[C@@]2(CCN3CC2CC2)[C@H]1O5 [naltrexone],Duration of action,[1],~24 h
same,Oral bioavailability,[4],5-40%
same,Solubility in water,[5],about 100 mg/mL
